Results taken from US10517889B2, “Modulators of SMAD7 expression” (Ionis Pharmaceuticals, Inc., priority 2017, dated 2019).
Strand notation (5' to 3'): a small letter for the sugar, then the base; units joined by * are phosphorothioate-linked, units joined directly phosphodiester-linked; [ ] holds rarer units or linkages, { } end groups; capitals alone tell only the bases. e = 2'-O-(2-methoxyethyl) (MOE); [5mC] = 5-methylcytosine; d = 2'-deoxy (DNA)

Test system: human SMAD7 mRNA
Experiment: Antisense inhibition of human SMAD7 mRNA expression in Hep3B cells by 5-10-5 MOE gapmers, single concentration, electroporation, RT-PCR (Example 1, Study 1 and 2)
Format: cell-based
Method in brief: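 Hep3B cells (20,000/well) electroporated with 5-10-5 MOE gapmer at 5,000 nM or 15,000 nM for approximately 24 h. SMAD7 mRNA quantified by real-time PCR with primer probe set RTS5062 and normalized to RIBOGREEN total RNA. Values are percent inhibition relative to untreated controls.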

[1] = Study 2, electroporation with 15,000 nM antisense oligonucleotide, 5-10-5 MOE gapmers targeting SEQ ID NO: 1 and 2
[2] = electroporation, 15,000 nM, approximately 24 hours, relative to untreated control cells, gapmers targeting SEQ ID NO: 1 and 2
[3] = electroporation, 15,000 nM antisense oligonucleotide (Study 2), 5-10-5 MOE gapmers targeting SEQ ID NO: 1 and 2
[4] = electroporation with 15,000 nM antisense oligonucleotide (Study 2), 5-10-5 MOE gapmers targeting SEQ ID NO: 1 and 2

771835 (antisense eA*eG*eT*eA*eA*dA*dA*dT*dG*dG*dG*dA*dA*dA*dT*eA*eA*eG*eG*e[5mC]) [compound 771835]
% Inhibition [1]: 5%
% inhibition of SMAD7 mRNA expression (electroporation, 5,000 nM, approximately 24 hours, relative to untreated control cells, gapmers targeting SEQ ID NO: 1 and 2): 17%

771423 (eG*e[5mC]*eA*eG*e[5mC]*dA*dT*d[5mC]*d[5mC]*dA*dG*d[5mC]*d[5mC]*d[5mC]*dT*eG*e[5mC]*e[5mC]*e[5mC]*eG; antisense) [compound 771423]
% Inhibition [1]: 39%

771525 (antisense eT*eT*eT*eG*e[5mC]*dA*dT*dG*dA*dA*dA*dA*dG*d[5mC]*dA*eA*eG*e[5mC]*eA*e[5mC]) [compound 771525]
% inhibition of SMAD7 mRNA expression [2]: 28%

771582 (antisense e[5mC]*eT*eG*eG*e[5mC]*dA*dG*d[5mC]*dT*dG*d[5mC]*dT*dG*dG*dG*eA*e[5mC]*e[5mC]*e[5mC]*e[5mC]) [compound 771582]
% inhibition of SMAD7 mRNA expression [1]: 37%

771442 (e[5mC]*eT*e[5mC]*eT*eT*dG*dA*d[5mC]*dT*dT*d[5mC]*d[5mC]*dG*dA*dG*eG*eA*eA*eT*eG; antisense) [compound 771442]
% inhibition of SMAD7 mRNA expression [3]: 22%

771725 (antisense e[5mC]*eT*eT*eG*eA*dG*dG*dG*dA*dG*d[5mC]*dT*dG*dG*dT*eA*eG*eA*eG*eT) [compound 771725]
% inhibition of SMAD7 mRNA expression [2]: 8%

771499 (antisense eG*e[5mC]*eT*eA*e[5mC]*d[5mC]*dG*dG*d[5mC]*dT*dG*dT*dT*dG*dA*eA*eG*eA*eT*eG) [compound 771499]
% inhibition of SMAD7 mRNA expression [3]: 1%

771409 (antisense e[5mC]*e[5mC]*e[5mC]*e[5mC]*eT*dG*d[5mC]*dG*d[5mC]*d[5mC]*d[5mC]*dT*d[5mC]*d[5mC]*dT*e[5mC]*e[5mC]*eT*e[5mC]*eG) [compound 771409]
% Inhibition of SMAD7 mRNA [4]: 33%
% inhibition of SMAD7 mRNA expression [3]: 19%

771451 (antisense eA*eG*eA*e[5mC]*eT*d[5mC]*dT*dA*dG*dT*dT*d[5mC]*dG*d[5mC]*dA*eG*eA*eG*eT*e[5mC]) [compound 771451]
% inhibition of SMAD7 mRNA expression [4]: 15%

771419 (eG*eG*e[5mC]*e[5mC]*eG*d[5mC]*d[5mC]*dG*d[5mC]*d[5mC]*dA*d[5mC]*d[5mC]*dG*dG*e[5mC]*e[5mC]*e[5mC]*e[5mC]*eA; antisense) [compound 771419]
% inhibition of SMAD7 mRNA expression [3]: 37%

771624 (antisense eT*eT*eA*eA*e[5mC]*dA*d[5mC]*dA*d[5mC]*dA*dG*dG*dA*dT*dG*eG*eG*eA*eG*e[5mC]) [compound 771624]
% Inhibition of SMAD7 mRNA [4]: 27%
% inhibition of SMAD7 mRNA expression [4]: 0%

771727 (antisense eA*eA*e[5mC]*eA*eT*dG*dG*d[5mC]*d[5mC]*dT*dT*dT*d[5mC]*dT*dT*eT*eT*e[5mC]*eT*eA) [compound 771727]
% Inhibition [1]: 0%

771540 (antisense eT*e[5mC]*eA*eT*eA*dA*dG*d[5mC]*dT*dA*dT*dT*dT*d[5mC]*dT*e[5mC]*eA*eA*eA*eG) [compound 771540]
% inhibition of SMAD7 mRNA expression [1]: 0%

771353 (antisense eT*eT*e[5mC]*e[5mC]*eA*dT*d[5mC]*d[5mC]*dA*dA*d[5mC]*dT*d[5mC]*dT*d[5mC]*eT*eT*eT*eG*e[5mC]) [compound 771353]
% Inhibition [1]: 0%

771726 (antisense eA*eG*e[5mC]*e[5mC]*eA*dA*dA*dA*d[5mC]*d[5mC]*d[5mC]*dA*dG*dT*d[5mC]*eA*eA*eG*eT*eT) [compound 771726]
% Inhibition [1]: 19%

771346 (antisense e[5mC]*eG*eT*eG*eA*dT*dT*d[5mC]*dT*d[5mC]*d[5mC]*dG*dT*dA*dT*eT*eT*eA*e[5mC]*eT) [compound 771346]
% Inhibition [1]: 22%

771842 (antisense eT*eT*eG*eT*eG*dT*dT*dA*dT*dG*dA*dA*dA*dA*d[5mC]*eA*eA*eA*eA*e[5mC]) [compound 771842]
% inhibition of SMAD7 mRNA expression [3]: 6%
